Experimental data from US20230381321A1, “CAMPTOTHECIN CONJUGATES” (priority 2022, published 2023).
Where two headings read alike, the source gives them in different places.

How the values were obtained:
Type in all cases: cell-based
[1] = tested on: renal carcinoma cells (786-O); assay: In vitro potency (CellTiter-Glo, 96 h) on 786-O; details: read-out: 786-O IC50
Description: (§1) In vitro potency was assessed on multiple cancer cell lines. All cell lines were authenticated by STR profiling at IDEXX Bioresearch and cultured for no more than 2 months after resuscitation. Cells cultured in log-phase growth were seeded for 24 hours in 96-well plates containing […] RPMI 1640 supplemented with 20% FBS. Serial dilutions of antibody-drug conjugates in cell culture media were prepared at 4x working concentrations, and 50 μL of each dilution was added to the 96-well plates. Following addition of test articles, cells were incubated with test articles for 4 days at […]. After 96 hours, growth inhibition was assessed by CellTiterGlo® (Promega, Madison, WI) and luminescence was measured on a plate reader.
(§2) Cell viability was determined by CellTiter-Glo staining after 96h exposure to ADC. ND=Not Determined. In the following tables, “Ex_” refers to a drug linker number. For example, “Ag4-Ex_4a” refers to a conjugate of an Ag4 antibody with drug linker 4a.

melanoma cells (A2058) = assay: In vitro potency (CellTiter-Glo, 96 h) on A2058; details: read-out: A2058 IC50
Description: as §1, §2

[2] = tested on: pancreatic cancer cells (BxPC3); assay: In vitro potency (CellTiter-Glo, 96 h) on BxPC3; details: read-out: BxPC3 IC50
Description: as §1, §2

[3] = tested on: non-small-cell lung cancer cells (Calu1); assay: In vitro potency (CellTiter-Glo, 96 h) on Calu1; details: read-out: Calu1 IC50
Description: as §1, §2

[4] = tested on: anaplastic large cell lymphoma cells (DEL); assay: In vitro potency (CellTiter-Glo, 96 h) on DEL; details: read-out: DEL IC50
Description: as §1, §2

[5] = tested on: anaplastic large cell lymphoma cells (DELBVR); assay: In vitro potency (CellTiter-Glo, 96 h) on DELBVR; details: read-out: DELBVR IC50
Description: as §1, §2

[6] = tested on: anaplastic large cell lymphoma cells (Karpas299); assay: In vitro potency (CellTiter-Glo, 96 h) on Karpas299; details: read-out: Karpas299 IC50
Description: as §1, §2

[7] = tested on: Hodgkin's lymphoma cells (L540cy); assay: In vitro potency (CellTiter-Glo, 96 h) on L540cy; details: read-out: L540cy IC50
Description: as §1, §2

[8] = In vitro potency (CellTiter-Glo, 96 h) on Ls174T; details: read-out: Ls174T IC50
Description: as §1, §2

[9] = tested on: breast cancer cells (MDA-MB-231); assay: In vitro potency (CellTiter-Glo, 96 h) on MDA-MB-231; details: read-out: MDAMB 231 IC50
Description: as §1, §2

[10] = tested on: acute myeloid leukemia cells (MOLM-13); assay: In vitro potency (CellTiter-Glo, 96 h) on MOLM-13; details: read-out: MOLM-13 IC50
Description: as §1, §2

[11] = tested on: B-lymphocyte cancer cells (SU-DHL4); assay: In vitro potency (CellTiter-Glo, 96 h) on SU-DHL4; details: read-out: SU-DHL-4 IC50
Description: as §1, §2

[12] = Homo sapiens, 786-0, 96 h, CPT free drugs, CellTiter-Glo after 96 h exposure
[13] = Homo sapiens, A2058, 96 h, CPT free drugs, CellTiter-Glo after 96 h exposure
[14] = Homo sapiens, BXPC-3, 96 h, CPT free drugs, CellTiter-Glo after 96 h exposure
[15] = Homo sapiens, Calu-1, 96 h, CPT free drugs, CellTiter-Glo after 96 h exposure
[16] = 96 h, CPT free drugs, CellTiter-Glo after 96 h exposure
[17] = Homo sapiens, KARPAS-299, 96 h, CPT free drugs, CellTiter-Glo after 96 h exposure
[18] = L540cy, 96 h, CPT free drugs, CellTiter-Glo after 96 h exposure
[19] = Homo sapiens, LS174T, CPT free drugs, CellTiter-Glo after 96 h exposure
[20] = Homo sapiens, MDA-MB-231, 96 h, CPT free drugs, CellTiter-Glo after 96 h exposure
[21] = Homo sapiens, MOLM-13, 96 h, CPT free drugs, CellTiter-Glo after 96 h exposure
[22] = Homo sapiens, SU-DHL-4, 96 h, CPT free drugs, CellTiter-Glo after 96 h exposure
[23] = CPT free drugs, CellTiter-Glo after 96 h exposure

Row | SMILES | IC50 [1, 12] [nM] | IC50 (melanoma cells (A2058); [13]) [nM] | IC50 [2, 14] [nM] | IC50 [3, 15] [nM] | IC50 [4, 16] [nM] | IC50 [5, 16] [nM] | IC50 [6, 17] [nM] | IC50 [7, 18] [nM] | IC50 [8, 19] [nM] | IC50 [9, 20] [nM] | IC50 [10, 21] [nM] | IC50 [11, 22] [nM] | also measured
1 | C=Cc1ccc2nc3c(c(CN)c2c1)Cn1c-3cc2c(c1=O)COC(=O)[C@]2(O)CC [Compound 33, (19S)-10-(aminomethyl)-19-ethyl-19-hydroxy-7-vinyl-17-oxa-3,13-diazapentacyclo[11.8.0.02,11.04,9.015,20]henicosa-1(21),2,4,6,8,10,15(20)-heptaene-14,18-dione] | 10 | 6 | 11 | 36 | 2 | 2 | 8 | 4 | 14 | 18 | 85 | 4 | –
2 | CC[C@@]1(O)C(=O)OCc2c1cc1n(c2=O)Cc2c-1nc1cc(F)c(C)c(C3=CCN(C(C)=O)CC3)c1c2CN [Compound 6k] | 80 | 17 | 95 | 170 | 7 | 11 | 40 | 16 | 46 | 368 | 13 | 21 | –
3 | C/C=C(\C)c1c(C)c(F)cc2nc3c(c(CN)c12)Cn1c-3cc2c(c1=O)COC(=O)[C@]2(O)CC [Compound 6a] | 6 | 5 | 8 | 21 | 2 | 3 | 5 | 4 | 12 | 7 | 4 | 2 | –
4 | CC[C@@]1(O)C(=O)OCc2c1cc1n(c2=O)Cc2c-1nc1cc(F)c(C)c(C=C(C)C)c1c2CN [Compound 6, (S)-11-(aminomethyl)-4-ethyl-8-fluoro-4-hydroxy-9-methyl-10-(2-methylprop-1-en-1-yl)-1,12-dihydro-14H-pyrano[3′,4′:6,7]indolizino[1,2-b]quinoline-3,14(4H)-dione] | – | – | – | – | – | – | – | – | – | – | – | – | IC50 ([1]; Homo sapiens, 786-0, 96 h): 5 nM; IC50 (melanoma cells (A2058); Homo sapiens, A2058, 96 h): 5 nM; IC50 ([2]; Homo sapiens, BXPC-3, 96 h): 8 nM; IC50 ([3]; Homo sapiens, Calu-1, 96 h): 17 nM; IC50 ([4]; 96 h): 1 nM; IC50 ([5]; 96 h): 3 nM; IC50 ([6]; Homo sapiens, KARPAS-299, 96 h): 4 nM; IC50 ([7]; L540cy, 96 h): 4 nM; IC50 ([8]; Homo sapiens, LS174T, 96 h): 21 nM; IC50 ([9]; Homo sapiens, MDA-MB-231, 96 h): 7 nM; IC50 ([10]; Homo sapiens, MOLM-13, 96 h): 4 nM; IC50 ([11]; Homo sapiens, SU-DHL-4, 96 h): 2 nM
5 | CC[C@@]1(O)C(=O)OCc2c1cc1n(c2=O)Cc2c-1nc1cc3c(cc1c2CN)CC=C3 [Compound 5] | 16 | 7 | 40 | – | 4 | 4 | 10 | 9 | > 1000 | 218 | – | 7 | IC50 ([3]; Homo sapiens, Calu-1, 96 h): 129 nM; IC50 ([10]; Homo sapiens, MOLM-13, 96 h): 258 nM
6 | CC[C@@]1(O)C(=O)OCc2c1cc1n(c2=O)Cc2c-1nc1cc(F)c(C)c(C3=CCCCC3)c1c2CN [Compound 6b] | 23 | 15 | 18 | 32 | 5 | 5 | 14 | 13 | 85 | 35 | 9 | 9 | –
7 | CC[C@@]1(O)C(=O)OCc2c1cc1n(c2=O)Cc2c-1nc1cc(F)c(C)c(-c3ccsc3)c1c2CN [Compound 6g] | 6 | 4 | 7 | 25 | 1 | 1 | 4 | 4 | 14 | 12 | 6 | 2 | –
8 | CC[C@@]1(O)C(=O)OCc2c1cc1n(c2=O)Cc2c-1nc1cc3c(cc1c2CN)C(C)CO3 (single isomer, unassigned) [Compound 11a] | – | – | – | – | – | – | – | – | – | – | – | – | IC50 [1, 23]: 15 nM; IC50 (melanoma cells (A2058); [23]): 5 nM; IC50 [2, 23]: 23 nM; IC50 [3, 23]: 131 nM; IC50 [4, 23]: 2 nM; IC50 [5, 23]: 4 nM; IC50 [6, 23]: 13 nM; IC50 [7, 23]: 6 nM; IC50 [8, 23]: > 1000 nM; IC50 [9, 23]: 100 nM; IC50 [10, 23]: 14 nM; IC50 [11, 23]: 3 nM
9 | CC[C@@]1(O)C(=O)OCc2c1cc1n(c2=O)Cc2c-1nc1cc(F)c3c(c1c2CN)CCC3 [Compound 2as] | 3 | 3 | 5 | 4 | 1 | 1 | 3 | 1 | 2 | 1 | 51 | 2 | –
10 | C=C(C)c1ccc2nc3c(c(CN)c2c1)Cn1c-3cc2c(c1=O)COC(=O)[C@]2(O)CC [Compound 33a] | 34 | 18 | 50 | 120 | 7 | 12 | 28 | 21 | 18 | 36 | 258 | 14 | –
11 | CC[C@@]1(O)C(=O)OCc2c1cc1n(c2=O)Cc2c-1nc1cc3c(cc1c2CNC(=O)OCc1ccc(NC(=O)[C@H](CCCCN)NC(=O)[C@@H](NC(=O)CCOCCOCCOCCOCCNC(=O)CCN2C(=O)C=CC2=O)C(C)C)cc1)CCO3 [Compound 14, [4-[[(2S)-6-amino-2-[[(2S)-2-[3-[2-[2-[2-[2-[3-(2,5-dioxopyrrol-1-yl)propanoylamino]ethoxy]ethoxy]ethoxy]ethoxy]propanoylamino]-3-methyl-butanoyl]amino]hexanoyl]amino]phenyl]methyl N-[[(5S)-5-ethyl-5-hydroxy-6,10-dioxo-7,20-dioxa-11,24-diazahexacyclo[11.11.0.02,11.04,9.015,23.017,21]tetracosa-1(13),2,4(9),14,16,21,23-heptaen-14-yl]methyl]carbamate;2,2,2-trifluoroacetic acid] | – | – | – | – | – | – | – | – | – | – | – | – | IC50 [1, 23]: 4 nM; IC50 (melanoma cells (A2058); [23]): 2 nM; IC50 [2, 23]: 6 nM; IC50 [3, 23]: 9 nM; IC50 [5, 23]: 1 nM; IC50 [6, 23]: 4 nM; IC50 [7, 23]: 2 nM; IC50 [8, 23]: 3 nM; IC50 [9, 23]: 5 nM; IC50 [10, 23]: 22 nM; IC50 [11, 23]: 1 nM
12 | CC[C@@]1(O)C(=O)OCc2c1cc1n(c2=O)Cc2c-1nc1cc3c(c(Br)c1c2CN)OCO3 [Compound 5c] | – | – | – | – | – | – | – | – | – | – | – | – | IC50 ([1]; Homo sapiens, 786-0, 96 h): 1 nM; IC50 (melanoma cells (A2058); Homo sapiens, A2058, 96 h): 5 nM; IC50 ([2]; Homo sapiens, BXPC-3, 96 h): 8 nM; IC50 ([3]; Homo sapiens, Calu-1, 96 h): 4 nM; IC50 ([4]; 96 h): 0.3 nM; IC50 ([6]; Homo sapiens, KARPAS-299, 96 h): 1 nM; IC50 ([7]; L540cy, 96 h): 0.8 nM; IC50 ([8]; Homo sapiens, LS174T, 96 h): 6 nM; IC50 ([9]; Homo sapiens, MDA-MB-231, 96 h): 2 nM; IC50 ([10]; Homo sapiens, MOLM-13, 96 h): 2 nM; IC50 ([11]; Homo sapiens, SU-DHL-4, 96 h): 0.5 nM
